Paper PMC10504751, “Chalcone/1,3,4-Oxadiazole/Benzimidazole hybrids as novel anti-proliferative agents inducing apoptosis and inhibiting EGFR & BRAFV^600E” (BMC Chemistry, 2023)
Where “and” joins values, the source holds several entries; their conditions need not be identical. Equal values may be shown once. Read-outs that look alike come from different tables or passages of the source.

Tests used:
NCI-H522 = assay: NCI one-dose SRB anti-proliferative screen; type: cell-based; settings: Homo sapiens, read-out: Cell growth inhibition %
In short: (§1)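 Compounds were tested at a single 10 µM concentration within a 60-cell-line panel covering nine tumour subpanels. Growth was read colorimetrically by sulforhodamine B staining.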

SNB-75 = assay: NCI one-dose SRB anti-proliferative screen; type: cell-based; settings: Homo sapiens, read-out: Cell growth inhibition %
In short: as §1

CCRF-CEM = assay: NCI one-dose SRB anti-proliferative screen; type: cell-based; settings: Homo sapiens, read-out: Cell growth inhibition %
In short: as §1

SF-268 = assay: NCI one-dose SRB anti-proliferative screen; type: cell-based; settings: Homo sapiens, read-out: Cell growth inhibition %
In short: as §1

NCI/ADR-RES = assay: NCI one-dose SRB anti-proliferative screen; type: cell-based; settings: Homo sapiens, read-out: Cell growth inhibition %
In short: as §1

BT-549 = assay: NCI one-dose SRB anti-proliferative screen; type: cell-based; settings: Homo sapiens, read-out: Cell growth inhibition %
In short: as §1

UO-31 = assay: NCI one-dose SRB anti-proliferative screen; type: cell-based; settings: Homo sapiens, read-out: Cell growth inhibition %
In short: as §1

K-562 = assay: NCI one-dose SRB anti-proliferative screen; type: cell-based, human; settings: Homo sapiens, K562, read-out: Cell growth inhibition %
Experimental: (§2) The twenty-four synthesized compounds were submitted to the National Cancer Institute (NCI), USA. Eighteen hybrids 7a-h, 7k-r, 7u, and 7v were selected by NCI for one-dose assessment of their anti-proliferative activities at 10 µM dose by Sulforhodamine B colorimetric assay. The assessment was performed in 60 cell lines derived from nine tumor subpanels, comprising lung, leukemia, melanoma, colon, renal, CNS, prostate, breast, and ovarian cancer cell lines.
(§3) The methodology of the NCI anti-proliferative screening has been described in details elsewhere (http://www.dtp.nci.nih.gov).

RXF 393 = assay: NCI one-dose SRB anti-proliferative screen; type: cell-based, human; settings: Homo sapiens, read-out: Cell growth inhibition %
Experimental: as §2, §3

MOLT-4 = assay: NCI one-dose SRB anti-proliferative screen; type: cell-based, human; settings: Homo sapiens, read-out: Cell growth inhibition %
Experimental: as §2, §3

HCT-116 = assay: NCI one-dose SRB anti-proliferative screen; type: cell-based, human; settings: Homo sapiens, read-out: Cell growth inhibition %
Experimental: as §2, §3

T-47D = assay: NCI one-dose SRB anti-proliferative screen; type: cell-based, human; settings: Homo sapiens, T47D, read-out: Cell growth inhibition %
Experimental: as §2, §3

EGFR = target: T1, EGFR (Homo sapiens, UniProt P00533); assay: EGFR-TK inhibitory assay; type: biochemical; settings: read-out: EGFR Inhibition IC50 ± SEM
T1 construct: EGFR cytoplasmic domain (EGFR-CD, amino acids 645–1186); His6 (N); made in house; host or cells: Sf-9 insect cells (baculovirus; pBlueBacHis2B / pFASTBacHTc)

BRAF^V600E = assay: biochemical
Experimental: To further denature the protein, heat (70° C) was applied for 5 min. […] 10 µL of each reaction was loaded into the precast plates and electrophoresis was allowed to proceed. After completion of electrophoresis, the front part of the precast gel plate (holding hot ATP) was cut and afterwards cast-off. The dried gel was developed using a phosphor screen.

[1] = test system: melanoma LOX-IMVI cell line; assay: Propidium iodide anti-proliferative assay in LOX-IMVI; type: cell-based, human; settings: for IC50: Homo sapiens, melanoma LOX-IMVI, 48 h incubation; for fold more selective towards LOX-IMVI cell line: LOX-IMVI vs MCF-10 A
Experimental: Consequently, the half-maximal inhibitory concentration (IC50) of these compounds was determined in LOX-IMVI cell line using propidium iodide (PI)^31, 32 with Staurosporine (broad spectrum protein kinase inhibitor) as a reference.
Cells whose cell membranes are damaged or have changed permeability are counted as dead ones. […] The medium was removed; the compounds were added to the plates at 10 µM concentrations (in 0.1% DMSO) in triplicates, followed by incubation for 48 h. DMSO (0.1%) was used as control. After incubation, medium was removed followed by the addition of PI (25 µl, 50µg/mL in water/medium) to each well of the plates. At -80 °C, the plates were allowed to freeze for 24 h, followed by thawing at 25 °C. A fluorometer (Polar-Star BMG Tech) was used to record the readings at excitation and emission wavelengths of 530 and 620 nm for each well. The percentage cytotoxicity of compounds was calculated using the following formula:
Where ATC= Absorbance of treated cells and AC= Absorbance of control.

[2] = MTT cell viability assay in normal cells; type: cell-based; settings: human, MCF-10A normal mammary epithelial cells
In short: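 Normal human mammary epithelial MCF-10A cells exposed to compounds at 50 µM (0.1% DMSO) for 96 h at 37°C, four wells per compound. Viability by MTT (0.4 mg/mL, 3 h), formazan in DMSO read at 540 nm.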

BAX in MCF-7 = assay: BAX activation assay; settings: for BAX Conc: MCF-7; for BAX Fold change: MCF-7, vs untreated control
Experimental: All reagents were brought to room temperature for at least 30 min before opening (except the human BAX-α Standard). Human BAX-α Standard solution was not be left at room temperature for more than 10 min. Duplicates of all standards, controls, and samples were run. The Assay Layout Sheet was used to determine the number of wells to be used, and any remaining wells were put with the desiccant back into the pouch, and the ziplock was sealed. Unused wells were stored at 4 ◦C. A total of 100 µL of Assay Buffer was pipetted into the S0 (0 pg/mL standard) wells. A total of 100 µL of Standards #1 through #6 was pipetted into the appropriate wells. A total of 100 µL of the samples was pipetted into the appropriate wells. The plate was gently tapped to mix the contents. The plate was sealed and incubated at room temperature on a plate shaker for 1 h at ~500 rpm. The contents of the wells were emptied and washed by adding 400 µL of wash solution to every well. The wash was repeated four more times for a total of five washes. After the final wash, the wells were emptied or aspirated and firmly the plate on a lint-free paper towel was tapped to remove any remaining wash buffer. A total of 100 µL of yellow antibody was pipetted into each well, except the Blank. The plate was sealed and incubated at room temperature on a plate shaker for 1 h at ~500 rpm. The contents of the wells were emptied and washed by adding 400 µL of wash solution to every well. The wash was repeated four more times for a total of five washes. After the final wash, the wells were emptied or aspirated, and the plate was firmly tapped on a lint-free paper towel to remove any remaining wash buffer. A total of 100 µL of blue Conjugate was added to each well, except the Blank. The plate was sealed and incubated at room temperature on a plate shaker for 30 min at ~500 rpm. The contents of the wells were emptied and washed by adding 400 µL of wash solution to every well. The wash was repeated four more times for a total of five washes. After the final wash, the wells were emptied or aspirated and the plate was firmly tapped on a lint-free paper towel to remove any remaining wash buffer. A total of 100 µL of Substrate Solution was pipetted into each well. It was incubated for 30 min at room temperature on a plate shaker at ~500 rpm. A total of 100 µL Stop Solution was pipetted into to each well. The plate reader was blanked against the Blank wells, and the optical density was read at 450 nm. The average net optical density (OD) bound for each standard and sample was calculated by subtracting the average Blank OD from the average OD for each standard and sample. Using linear graph paper, the Average Net OD for each standard versus BAX concentration in each standard were plotted. A straight line was approximated through the points. The concentration of BAX in the unknowns could be determined by interpolation.

[3] = test system: Cytochrome C in MCF-7 human breast cancer cell line; assay: Cytochrome C assay; type: cell-based; settings: for Cytochrome C Fold change: MCF-7, vs untreated control; for Cytochrome C Conc: MCF-7 breast cancer cells
[4] = NCI-H522 (Non-Small Cell Lung Cancer), NCI one dose 10 µM
[5] = SNB-75 (CNS Cancer), NCI one dose 10 µM
[6] = CCRF-CEM (Leukemia), NCI one dose 10 µM
[7] = SF-268 (CNS Cancer), NCI one dose 10 µM
[8] = NCI/ADR-RES (Ovarian Cancer), NCI one dose 10 µM
[9] = BT-549 (Breast Cancer), NCI one dose 10 µM
[10] = UO-31 (Renal Cancer), NCI one dose 10 µM
[11] = K-562 (Leukemia), NCI one dose 10 µM
[12] = RXF 393 (Renal Cancer), NCI one dose 10 µM
[13] = MOLT-4 (Leukemia), NCI one dose 10 µM
[14] = HCT-116 (Colon Cancer), NCI one dose 10 µM
[15] = T-47D (Breast Cancer), NCI one dose 10 µM
[16] = NCI-H522, Non-Small Cell Lung Cancer, NCI one dose
[17] = SNB-75, CNS Cancer, NCI one dose
[18] = CCRF-CEM, Leukemia, NCI one dose
[19] = SF-268, CNS Cancer, NCI one dose
[20] = NCI/ADR-RES, Ovarian Cancer, NCI one dose
[21] = BT-549, Breast cancer, NCI one dose
[22] = UO-31, Renal cancer, NCI one dose
[23] = RXF 393, Renal cancer, NCI one dose
[24] = HCT-116, Colon cancer, NCI one dose
[25] = T-47D, Breast cancer, NCI one dose

T1 sequence (P00533 669-1210): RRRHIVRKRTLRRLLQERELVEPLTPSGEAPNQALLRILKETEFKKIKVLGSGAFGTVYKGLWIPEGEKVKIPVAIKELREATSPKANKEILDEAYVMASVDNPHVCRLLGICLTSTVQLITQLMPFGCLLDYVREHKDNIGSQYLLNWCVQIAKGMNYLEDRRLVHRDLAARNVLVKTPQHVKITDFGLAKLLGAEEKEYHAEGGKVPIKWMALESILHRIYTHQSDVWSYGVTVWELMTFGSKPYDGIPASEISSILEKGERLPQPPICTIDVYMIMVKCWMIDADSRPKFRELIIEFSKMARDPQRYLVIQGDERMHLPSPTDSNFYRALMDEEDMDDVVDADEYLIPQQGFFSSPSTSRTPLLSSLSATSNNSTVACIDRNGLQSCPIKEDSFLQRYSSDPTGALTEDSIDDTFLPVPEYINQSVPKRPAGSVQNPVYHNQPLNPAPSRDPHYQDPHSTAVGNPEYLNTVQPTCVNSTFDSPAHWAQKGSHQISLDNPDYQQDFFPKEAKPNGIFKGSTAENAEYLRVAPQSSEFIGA
BRAF^V600E, sequence (P28028 whole entry V585E): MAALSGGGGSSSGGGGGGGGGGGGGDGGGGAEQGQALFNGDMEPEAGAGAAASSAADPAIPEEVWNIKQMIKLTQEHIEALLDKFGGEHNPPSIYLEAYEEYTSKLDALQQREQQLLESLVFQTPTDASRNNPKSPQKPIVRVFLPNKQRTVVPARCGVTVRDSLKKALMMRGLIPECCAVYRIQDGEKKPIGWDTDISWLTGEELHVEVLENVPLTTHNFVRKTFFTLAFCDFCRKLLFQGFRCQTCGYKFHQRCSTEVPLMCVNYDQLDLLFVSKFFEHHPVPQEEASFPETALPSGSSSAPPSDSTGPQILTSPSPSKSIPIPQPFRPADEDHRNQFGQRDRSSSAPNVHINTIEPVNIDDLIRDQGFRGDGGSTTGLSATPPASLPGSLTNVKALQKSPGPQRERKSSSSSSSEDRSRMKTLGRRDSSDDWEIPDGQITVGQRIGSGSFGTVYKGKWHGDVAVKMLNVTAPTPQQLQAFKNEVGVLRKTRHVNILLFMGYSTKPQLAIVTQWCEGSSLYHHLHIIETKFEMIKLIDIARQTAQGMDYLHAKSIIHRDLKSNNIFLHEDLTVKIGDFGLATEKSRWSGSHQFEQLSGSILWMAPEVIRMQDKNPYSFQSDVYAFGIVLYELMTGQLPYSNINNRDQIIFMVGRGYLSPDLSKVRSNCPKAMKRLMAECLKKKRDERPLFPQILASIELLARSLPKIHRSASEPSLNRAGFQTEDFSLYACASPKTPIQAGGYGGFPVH

SMILES | inhibition at 10 µM (NCI-H522; [4]) | inhibition at 10 µM (SNB-75; [5]) | inhibition at 10 µM (CCRF-CEM; [6]) | inhibition at 10 µM (SF-268; [7]) | inhibition at 10 µM (NCI/ADR-RES; [8]) | inhibition at 10 µM (BT-549; [9]) | inhibition at 10 µM (UO-31; [10]) | melting point | inhibition at 10 µM (K-562; [11]) | inhibition at 10 µM (RXF 393; [12]) | inhibition at 10 µM (MOLT-4; [13]) | inhibition at 10 µM (HCT-116; [14]) | inhibition at 10 µM (T-47D; [15]) | IC50 (EGFR) | IC50 (BRAF^V600E) | IC50 [1] | viability at 96 h, 50 µM [2] | inhibition at 10 µM (NCI-H522; [16]) | inhibition at 10 µM (SNB-75; [17]) | inhibition at 10 µM (CCRF-CEM; [18]) | also measured
O=C(CSc1nnc(-c2ccc3[nH]c(-c4ccc(Cl)cc4)nc3c2)o1)Nc1ccc(C(=O)/C=C/c2ccc(Cl)cc2)cc1 [Compound 7g, 2-{5-[2-(4-Chlorophenyl)-1 H-benzo[d]imidazol-5-yl]-1,3,4-oxadiazol-2-ylthio}-N-{4-[(E)-3-(4-chlorophenyl)acryloyl]phenyl}acetamide] | 11.6% | 9.09% | 13.6% | 0.08% | 0% | 0.37% | 24.7% | 215 to 217 °C | 18.6% | 0% | 22.2% | 22.2% | 12.9% | 1700 ± 200 nM | 1000 ± 200 nM | 1050 ± 100 nM | 91% | – | – | – | –
COc1ccc(-c2nc3cc(-c4nnc(SCC(=O)Nc5ccc(C(=O)/C=C/c6ccc(Cl)cc6)cc5)o4)ccc3[nH]2)cc1 [Compound 7l, 2-{5-[2-(4-Methoxyphenyl)-1 H-benzo[d]imidazol-5-yl]-1,3,4-oxadiazol-2-ylthio}-N-{4-[(E)-3-(4-chlorophenyl)acryloyl]phenyl}acetamide] | – | – | – | – | – | – | – | – | – | – | – | – | – | 800 ± 100 nM | 1900 ± 200 nM | 800 ± 100 nM | 89% | 4.71% | 5.35% | 3.98% | inhibition at 10 µM (SF-268; [19]): 5.15%; inhibition at 10 µM (NCI/ADR-RES; [20]): 0%; inhibition at 10 µM (BT-549; [21]): 1.84%; inhibition at 10 µM (UO-31; [22]): 14.7%; BAX Conc (BAX in MCF-7): 271 pg/mL and 271.600 pg/mL; BAX Fold change (BAX in MCF-7): 32 fold and 32.0 fold; Cytochrome C Fold change [3]: 13 fold and 13.00 fold; Cytochrome C Conc [3]: 0.595 ng/mL; inhibition at 10 µM (K-562; K-562, Leukemia, NCI one dose): 6.12%; inhibition at 10 µM (RXF 393; [23]): 1.82%; inhibition at 10 µM (MOLT-4; MOLT-4, Leukemia, NCI one dose): 11.7%; inhibition at 10 µM (HCT-116; [24]): 0%; inhibition at 10 µM (T-47D; [25]): 7.23%; fold more selective towards LOX-IMVI cell line [1]: 111 fold
COc1ccc(/C=C/C(=O)c2ccc(NC(=O)CSc3nnc(-c4ccc5[nH]c(-c6ccc(OC)cc6)nc5c4)o3)cc2)cc1 [Compound 7m, 2-{5-[2-(4-Methoxyphenyl)-1 H-benzo[d]imidazol-5-yl]-1,3,4-oxadiazol-2-ylthio}-N-{4-[(E)-3-(4-methoxyphenyl)acryloyl]phenyl}acetamide] | – | – | – | – | – | – | – | – | – | – | – | – | – | 900 ± 100 nM | 2200 ± 200 nM | – | 94% | 22.8% | 0% | 38.5% | inhibition at 10 µM (SF-268; [19]): 5.02%; inhibition at 10 µM (NCI/ADR-RES; [20]): 0%; inhibition at 10 µM (BT-549; [21]): 14.3%; inhibition at 10 µM (UO-31; [22]): 7.02%; BAX Conc (BAX in MCF-7): 268.200 pg/mL; BAX Fold change (BAX in MCF-7): 31.5 fold; Cytochrome C Fold change [3]: 11 fold and 11.00 fold; Cytochrome C Conc [3]: 0.515 ng/mL; inhibition at 10 µM (K-562; K-562, Leukemia, NCI one dose): 28.7%; inhibition at 10 µM (RXF 393; [23]): 0%; inhibition at 10 µM (MOLT-4; MOLT-4, Leukemia, NCI one dose): 36.9%; inhibition at 10 µM (HCT-116; [24]): 0%; inhibition at 10 µM (T-47D; [25]): 31.1%
COc1ccc(-c2nc3cc(-c4nnc(SCC(=O)Nc5ccc(C(=O)/C=C/c6ccccc6)cc5)o4)ccc3[nH]2)cc1OC [Compound 7p, 2-{5-[2-(3,4-Dimethoxyphenyl)-1 H-benzo[d]imidazol-5-yl]-1,3,4-oxadiazol-2-ylthio}-N-{4-[(E)-3-phenylacryloyl]phenyl}acetamide] | 1.56% | 9.72% | 11.6% | 0% | 0% | 5.86% | 11.5% | 185 to 186 °C | 8.36% | 0% | 19.5% | 10.3% | 13.1% | 3500 ± 300 nM | 4200 ± 300 nM | 1200 ± 100 nM | 87% | – | – | – | –
COc1ccc(-c2nc3cc(-c4nnc(SCC(=O)Nc5ccc(C(=O)/C=C/c6ccc(Cl)cc6)cc5)o4)ccc3[nH]2)cc1OC [Compound 7q, 2-{5-[2-(3,4-Dimethoxyphenyl)-1 H-benzo[d]imidazol-5-yl]-1,3,4-oxadiazol-2-ylthio}-N-{4-[(E)-3-(4-chlorophenyl)acryloyl]phenyl}acetamide] | 1.57% | 0% | 0% | 0% | 0% | 0% | 13% | 194 to 195 °C | 7.27% | 0% | 24.2% | 0% | 10.6% | 3900 ± 300 nM | 4700 ± 300 nM | 2500 ± 200 nM | 94% | – | – | – | –
COc1cc(-c2nc3cc(-c4nnc(SCC(=O)Nc5ccc(C(=O)/C=C/c6ccc(Cl)cc6)cc5)o4)ccc3[nH]2)cc(OC)c1OC [Compound 7v, 2-{5-[2-(3,4,5-Trimethoxyphenyl)-1 H-benzo[d]imidazol-5-yl]-1,3,4-oxadiazol-2-ylthio}-N-{4-[(E)-3-(4-chlorophenyl)acryloyl]phenyl}acetamide] | 7.4% | 14.7% | 18.4% | 0.81% | 0% | 15.6% | 16% | – | 16.2% | 0% | 20.6% | 18.5% | 19.6% | 2800 ± 300 nM | 3100 ± 200 nM | 900 ± 100 nM | 87% | – | – | – | fold more selective towards LOX-IMVI cell line [1]: 97 fold
